Measurements taken from patent US20070167492A1, “Molluscicidal agents” (priority 2003, published 2007).

How the values were obtained:
[1] = test system: Deroceras reticulatum (grey field slug); experiment: Example 2: pot re-test, treated winter wheat seed with 5 adult slugs per pot, 7 days; format: in vivo
How it was run: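 Pots sown with 40 treated winter wheat seeds on quartz sand over potting soil, each given 5 adult grey field slugs, kept at 18-19° C, ~95% RH, ~18 h light, no overhead irrigation; 4 replicates. Damaged seeds, intact plants, dead slugs and fecal pellets counted at 2, 3, 7 days; F-tests and Student tests.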

[2] = test system: Deroceras reticulatum (grey field slug); experiment: Example 1: pot test, treated winter wheat seed with 5 adult slugs per pot, 14 days; format: in vivo
How it was run: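 Fludioxonil-disinfected winter wheat seed (Kampa, 40 per pot) sown on quartz sand over potting soil with 5 adult slugs per pot; ±15° C., ±90% RH, 12 h light/12 h dark, 4 replicates. Damaged seeds, plants, dead slugs and fecal pellets counted up to day 14; F-tests and Student-tests.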

[3] = Example 2, 3.8 ml formulated per kg seed, 2 days after sowing
[4] = Example 2, 3.8 ml formulated per kg seed, 3 days after sowing
[5] = Example 2, 3.8 ml formulated per kg seed, 7 days after sowing
[6] = Example 2, after 2, 3 and 7 days
[7] = 3.8 ml formulated per kg seed, 2 days after sowing
[8] = 3.8 ml formulated per kg seed, 3 days after sowing
[9] = 3.8 ml formulated per kg seed, 7 days after sowing
[10] = 3.8 ml formulated per kg seed, 10 days after sowing
[11] = 3.8 ml formulated per kg seed, 14 days after sowing
[12] = 7.5 ml formulated per kg seed, 2 days after sowing
[13] = 7.5 ml formulated per kg seed, 3 days after sowing
[14] = 7.5 ml formulated per kg seed, 7 days after sowing
[15] = 7.5 ml formulated per kg seed, 10 days after sowing
[16] = 7.5 ml formulated per kg seed, 14 days after sowing
[17] = 11 ml formulated per kg seed, 2 days after sowing
[18] = 11 ml formulated per kg seed, 3 days after sowing
[19] = 11 ml formulated per kg seed, 7 days after sowing
[20] = 11 ml formulated per kg seed, 10 days after sowing
[21] = 11 ml formulated per kg seed, 14 days after sowing
[22] = 15 ml formulated per kg seed, 2 days after sowing
[23] = 15 ml formulated per kg seed, 3 days after sowing
[24] = 15 ml formulated per kg seed, 7 days after sowing
[25] = 15 ml formulated per kg seed, 10 days after sowing
[26] = 15 ml formulated per kg seed, 14 days after sowing

Compound: CC1OC(C)OC(C)OC(C)O1 (stereo not shown) [metaldehyde]
- dead slugs observed during the course of the experiment ([1]; Example 2): More dead slugs
- result of seed treatment against slugs (conclusion) ([1]; Example 2): good action against slugs
- percentage of damaged seeds after 7 days ([1]; Example 2, 3.8 ml formulated per kg seed): 1%
- Mean number of damaged seeds per pot [1, 3]: 0.5
- Mean number of dead slugs per pot [1, 3]: 0.5
- Mean number of damaged seeds per pot [1, 4]: 0.3
- Mean number of dead slugs per pot [1, 4]: 0.8
- Mean number of damaged seeds per pot [1, 5]: 0.3
- Mean number of dead slugs per pot [1, 5]: 3.0
- number of fecal pellets per pot relative to the untreated control [1, 6]: significant reduction in the number of fecal pellets
- plants present relative to the untreated seed [1, 6]: significantly more plants present
- number of damaged seeds relative to the untreated seed ([1]; Example 2, two days after the start): significant reduction in the number of damaged seeds
- Mean number of fecal pellets per pot ([1]; dosage 3.8 ml, 2 days): 0
- Mean number of plants present per pot ([1]; dosage 3.8 ml, 2 days): 20.8
- Mean number of fecal pellets per pot ([1]; dosage 3.8 ml, 3 days): 0
- Mean number of plants present per pot ([1]; dosage 3.8 ml, 3 days): 32.5
- Mean number of fecal pellets per pot ([1]; dosage 3.8 ml, 7 days): 5
- Mean number of plants present per pot ([1]; dosage 3.8 ml, 7 days): 35.8
- number of utilizable plants after 7 days ([1]; dosage 3.8 ml, 7 days): 34.3
- number of utilizable plants after 14 days ([2]; 3.8 ml formulated per kg seed): 32.3
- percentage of damaged seeds after 14 days ([2]; 3.8 ml formulated per kg seed): 7%
- Mean number of damaged seeds per pot [2, 7]: 0
- Mean number of dead slugs per pot [2, 7]: 0
- Mean number fecal pellets per pot [2, 8]: 1
- Mean number of damaged seeds per pot [2, 8]: 0.3
- Mean number of dead slugs per pot [2, 8]: 0
- Mean number of plants present per pot [2, 8]: 9.3
- Mean number fecal pellets per pot [2, 9]: 4
- Mean number of damaged seeds per pot [2, 9]: 2.5
- Mean number of dead slugs per pot [2, 9]: 0
- Mean number of plants present per pot [2, 9]: 34.8
- Mean number fecal pellets per pot [2, 10]: 5
- Mean number of damaged seeds per pot [2, 10]: 1.3
- Mean number of dead slugs per pot [2, 10]: 0
- Mean number of plants present per pot [2, 10]: 33.0
- Mean number fecal pellets per pot [2, 11]: 31
- Mean number of damaged seeds per pot [2, 11]: 2.8
- Mean number of dead slugs per pot [2, 11]: 0.5
- Mean number of plants present per pot [2, 11]: 34.0
- number of utilizable plants after 14 days ([2]; 7.5 ml formulated per kg seed): 34.3
- percentage of damaged seeds after 14 days ([2]; 7.5 ml formulated per kg seed): 6%
- Mean number of damaged seeds per pot [2, 12]: 0
- Mean number of dead slugs per pot [2, 12]: 0
- Mean number fecal pellets per pot [2, 13]: 2
- Mean number of damaged seeds per pot [2, 13]: 0
- Mean number of dead slugs per pot [2, 13]: 0
- Mean number of plants present per pot [2, 13]: 3.5
- Mean number fecal pellets per pot [2, 14]: 4
- Mean number of damaged seeds per pot [2, 14]: 3.5
- Mean number of dead slugs per pot [2, 14]: 0.8
- Mean number of plants present per pot [2, 14]: 34.3
- Mean number fecal pellets per pot [2, 15]: 4
- Mean number of damaged seeds per pot [2, 15]: 2.5
- Mean number of dead slugs per pot [2, 15]: 1.0
- Mean number of plants present per pot [2, 15]: 35.3
- Mean number fecal pellets per pot [2, 16]: 6
- Mean number of damaged seeds per pot [2, 16]: 2.5
- Mean number of dead slugs per pot [2, 16]: 1.5
- Mean number of plants present per pot [2, 16]: 35.0
- number of utilizable plants after 14 days ([2]; 11 ml formulated per kg seed): 36.3
- percentage of damaged seeds after 14 days ([2]; 11 ml formulated per kg seed): 1%
- Mean number of damaged seeds per pot [2, 17]: 0
- Mean number of dead slugs per pot [2, 17]: 0
- Mean number fecal pellets per pot [2, 18]: 2
- Mean number of damaged seeds per pot [2, 18]: 0
- Mean number of dead slugs per pot [2, 18]: 0
- Mean number of plants present per pot [2, 18]: 9.8
- Mean number fecal pellets per pot [2, 19]: 2
- Mean number of damaged seeds per pot [2, 19]: 1.0
- Mean number of dead slugs per pot [2, 19]: 0.5
- Mean number of plants present per pot [2, 19]: 34.0
- Mean number fecal pellets per pot [2, 20]: 1
- Mean number of damaged seeds per pot [2, 20]: 0.3
- Mean number of dead slugs per pot [2, 20]: 0.5
- Mean number of plants present per pot [2, 20]: 35.8
- Mean number fecal pellets per pot [2, 21]: 3
- Mean number of damaged seeds per pot [2, 21]: 0.3
- Mean number of dead slugs per pot [2, 21]: 1.0
- Mean number of plants present per pot [2, 21]: 36.5
- number of utilizable plants after 14 days ([2]; 15 ml formulated per kg seed): 34.5
- percentage of damaged seeds after 14 days ([2]; 15 ml formulated per kg seed): 0%
- Mean number of damaged seeds per pot [2, 22]: 0.3
- Mean number of dead slugs per pot [2, 22]: 0
- Mean number fecal pellets per pot [2, 23]: 1
- Mean number of damaged seeds per pot [2, 23]: 0
- Mean number of dead slugs per pot [2, 23]: 0.3
- Mean number of plants present per pot [2, 23]: 6.3
- Mean number fecal pellets per pot [2, 24]: 3
- Mean number of damaged seeds per pot [2, 24]: 0.8
- Mean number of dead slugs per pot [2, 24]: 0.8
- Mean number of plants present per pot [2, 24]: 35.0
- Mean number fecal pellets per pot [2, 25]: 4
- Mean number of damaged seeds per pot [2, 25]: 0
- Mean number of dead slugs per pot [2, 25]: 0.8
- Mean number of plants present per pot [2, 25]: 35.0
- Mean number fecal pellets per pot [2, 26]: 5
- Mean number of damaged seeds per pot [2, 26]: 0
- Mean number of dead slugs per pot [2, 26]: 1.0
- Mean number of plants present per pot [2, 26]: 35.3
- damaged seeds relative to the control ([2]; Example 1, 3.8, 7.5, 11 or 15 ml per kg of seed, all dosages): significantly less damaged seeds
- plants present relative to untreated ([2]; Example 1, all dosages, after 7 days): significantly more plants present
- fecal pellets relative to the untreated seed ([2]; Example 1, at each dosage and at each observation): significantly less fecal pellets
- protection / slug controlling effect (conclusion) ([2]; Example 1, winter wheat seed treatment, dosages tested): excellent protection against slugs
